# In patent US10717758B2, “D-amino acid compounds for liver disease” (priority 2012, dated 2020):
# Where two headings read alike, the source gives them in different places.
# What was measured:
# HCV genotype 1b replicon = assay: HCV replicon assay; type: cell-based
# Procedure: Huh-7-derived cell line (Zluc) that harbors an HCV genotype 1b replicon and a luciferase reporter gene was grown in Dulbecco's Modified Eagle Medium (DMEM) supplemented with 10% fetal bovine serum, 2 mM GlutaMAX, 1% MEM nonessential amino acids, 100 IU/mL penicillin, 100 μg/mL streptomycin, and 0.5 mg/mL Geneticin® (G418). For dose response testing the cells were seeded in 96-well plates at 7.5×10^3 cells per well in a volume of 50 μL, and incubated at 37° C./5% CO2. Drug solutions were made up freshly in Huh-7 media as 2× stocks. Ten additional 5-fold dilutions were prepared from these stocks in DMEM without G418. At least three hours after Zluc cells were seeded, drug treatment was initiated by adding 50 μL of drug dilutions to the plates in duplicate. Final concentrations of drug ranged from 100 μM to […]. Cells were then incubated at 37° C./5% CO2. Alternatively, compounds were tested at two concentrations (1 μM and 10 μM). […] For this, media was removed from the plates via gentle tapping. Fifty microliters of ONE-glo luciferase assay reagent was added to each well. The plates were shaken gently for 3 min at room temperature and luminescence was measured on a Victor^3 V 1420 multilabel counter (Perkin Elmer) with a 1 second read time using a 700 nm cut-off filter. The EC50 values were calculated from dose response curves from the resulting best-fit equations determined by Microsoft Excel and XLfit 4.1 software. When screening at two fixed concentrations, the results were expressed as % inhibition at 1 μM and 10 μM.
# [1] = molecular target: T1, carboxylesterase 1 (CES1) (Homo sapiens, UniProt P23141); assay: Hydrolysis of prodrugs by Carboxylesterase 1; type: in vitro ADME; details: for CES1 hydrolysis: 100 μM compound, 37° C., pH 7.5
# T1 construct: purchased R & D Systems (Minneapolis, Minn.)
# T1 sequence (P23141 18-567): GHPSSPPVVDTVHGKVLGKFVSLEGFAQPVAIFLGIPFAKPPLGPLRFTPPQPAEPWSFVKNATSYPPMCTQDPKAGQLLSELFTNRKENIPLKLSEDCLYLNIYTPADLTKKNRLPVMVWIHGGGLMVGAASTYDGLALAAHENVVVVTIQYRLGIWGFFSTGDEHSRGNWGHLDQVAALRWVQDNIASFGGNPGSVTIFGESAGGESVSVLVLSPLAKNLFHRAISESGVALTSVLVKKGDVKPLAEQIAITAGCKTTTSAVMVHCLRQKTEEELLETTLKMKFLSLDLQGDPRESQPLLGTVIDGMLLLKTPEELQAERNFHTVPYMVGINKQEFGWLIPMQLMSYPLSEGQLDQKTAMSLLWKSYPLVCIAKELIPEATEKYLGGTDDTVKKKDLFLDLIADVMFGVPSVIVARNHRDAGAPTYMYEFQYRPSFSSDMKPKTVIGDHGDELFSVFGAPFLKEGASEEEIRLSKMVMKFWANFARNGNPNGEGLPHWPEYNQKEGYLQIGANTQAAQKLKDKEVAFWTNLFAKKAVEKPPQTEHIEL
# Procedure: CES1 assay was performed at 37° C. in the reaction mixture containing 50 mM Tris/HCl buffer pH 7.5 and 100 μM of the compound. Reaction was started by addition of the CES1 to the final concentration 0.01 μg/mL. 100 μL aliquots were taken after 0.5 min, 3 hrs and 21 hrs of the incubation and the reaction was stopped by mixing with 100 μl of the ice-cold methanol prior to HPLC analysis.
# Samples were analyzed by HPLC using 5 μC-18, 4.6×250 mm Phenomenex® Columbus column (Phenomenex USA, Calif.). The mobile phase consisted of buffer A (25 mM potassium phosphate with 5 mM tetrabutylammonium dihydrogen phosphate pH 6.3) and buffer B (100% methanol).
# [2] = Liver TP formation and liver targeting in vivo (Example 6, Table 7); design: species or system mice and monkey
# Excerpt: The in vitro antiviral inactivity of Z4 and Z2 is thought to reflect an inability of Huh-7 replicon cells to metabolize the prodrug moiety.
# cathepsin A (CatA) = molecular target: T2, cathepsin A (CatA) (Homo sapiens, UniProt P10619); assay: Hydrolysis of prodrugs by Cathepsin A; type: in vitro ADME; details: time not given; 100 μM compound, 37° C., pH 6.0
# T2 sequence (P10619 29-326 limits assumed): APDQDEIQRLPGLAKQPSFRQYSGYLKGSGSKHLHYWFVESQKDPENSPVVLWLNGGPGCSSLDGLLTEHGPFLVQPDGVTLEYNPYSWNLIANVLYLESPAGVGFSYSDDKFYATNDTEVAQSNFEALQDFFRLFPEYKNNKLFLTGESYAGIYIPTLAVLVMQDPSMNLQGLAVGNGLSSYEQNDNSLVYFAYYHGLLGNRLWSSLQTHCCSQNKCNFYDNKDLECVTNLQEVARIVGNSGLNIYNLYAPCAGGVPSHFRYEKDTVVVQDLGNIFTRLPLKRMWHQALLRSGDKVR
# T2 sequence (P10619 327-480 limits assumed): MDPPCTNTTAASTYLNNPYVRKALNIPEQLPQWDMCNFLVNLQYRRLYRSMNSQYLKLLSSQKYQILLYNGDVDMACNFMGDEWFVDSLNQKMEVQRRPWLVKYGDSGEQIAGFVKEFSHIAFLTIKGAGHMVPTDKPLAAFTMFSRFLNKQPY
# Procedure: CatA, cathepsin L (CatL) and CES1 were purchased from R & D Systems (Minneapolis, Minn.). Prior to the enzymatic hydrolysis reactions, CatA was activated according to the manufacturer's instruction. Briefly, CatA (0.05 μg/μL) was incubated with CatL (0.005 μg/μL) for 30 min at 37° C. in 25 mM MES pH 6.0 containing 5 mM DTT. The reaction was stopped by addition of the CatL specific inhibitor E64 (10 μM).
# The CatA assay was performed at 37° C. The reaction mixture contained 25 mM MES buffer pH 6.0, 100 mM NaCl, 4 mM DTT and 100 μM of the compound. The reaction was started by addition of the activated CatA enzyme to a final concentration of 0.005 μg/μL. […] Reactions were stopped by mixing the sample with an equal volume of ice-cold methanol, and were loaded on a HPLC for analysis.
# [3] = Cytotoxicity evaluation in Zluc cells (CellTiter-Blue); type: cell-based, human; details: human, read-out: HCV Replicon CC50
# Procedure: For cytotoxicity evaluation, Zluc cells were treated with compound as described herein, and cell viability was monitored using the CellTiter-Blue Cell Viability Assay (Promega) by adding 20 μL of the assay solution to each well. The plates were then incubated at 37° C./5% CO2 for at least 3 hours.
# fresh mouse hepatocyte = assay: Release of active metabolite in primary hepatocytes (mouse); type: in vitro ADME; details: 10 μM
# Procedure: Plates of fresh human and mouse hepatocytes were obtained on ice. The medium was removed and replaced with hepatocyte culture medium (William's E supplemented with penicillin-streptomycin, 1% L-glutamine, 1% insulin-transferrin-selenium and 0.1 μM Dexamethasone (Invitrogen) or with Invitro GRO HI medium complemented with Torpedo antibiotics (Celsis)). Cells were left overnight in an incubator at 37° C. to acclimatize to culture and the medium.
# Hepatocyte incubations were conducted at a final volume of 0.5 mL hepatocyte culture medium/well (0.8 million cells/well for human and 0.5 million cells/well for mouse; 12 well plate no overlay, collagen coat). Culture medium from overnight incubation of cells was removed and replaced with fresh medium, pre-warmed to 37° C., containing 10 μM of test compound from a stock solution in DMSO (final DMSO concentration was 0.1%). At each specific time point, incubation medium was removed and cell monolayers were carefully washed two times with ice-cold PBS. Following the last wash, all PBS was carefully removed and 1.0 mL of extraction solution (ice-cold 70% methanol/30% water) added. Cells were scraped off and suspended in the extraction solution, transferred to 2 mL polypropylene microfuge tubes and intracellular contents extracted overnight at −20° C.
# After the overnight treatment the cellular extracts were prepared by centrifugation at 16,000×g for 10 min to remove cellular debris. The remaining sample was then dried using a refrigerated centrivap concentrator. Dry extracts were reconstituted in 1000 μL of HPLC-grade water and centrifuged at 16,000×g for 10 min. Aliquots (100 μL each) of the supernatant were transferred into a 96 well plate and internal standard (4 ng/mL final concentration) was added as the internal standard (IS) for LC-MS/MS analysis.
# The incubation time points were 6, 24 and 48 hours for human hepatocytes and 1, 4, 8, 12 and 24 hours for mouse hepatocytes.
# [4] = Plasma nucleoside and liver triphosphate PK after single oral dose (Example 4); type: in vivo, CD-1 mice; details: at 1 μmol/kg, single oral dose 10 mg/kg in PEG 200
# Procedure: Plasma samples were analyzed for nucleoside by LC-MS/MS. The internal standard (IS) was either 2′-MeG-D3 or tiapride. For protein precipitation and extraction, each plasma sample (50 μL) was treated with 500 μL of 0.2% formic acid in acetonitrile and 20 μL of the internal standard working solution. After vortexing and centrifugation, 500 μL of the sample extracts were transferred to a new plate, dried under N2 at ˜28° C. and reconstituted with 75 μL of 0.2% FA in water. The extracts were chromatographed on an Aquasil C18 column using a gradient system of 0.2% formic acid in water and acetonitrile. The analytes were detected and quantified by tandem mass spectrometry in positive ion mode on an MDS Sciex API5000 equipped with a Turbo Ionspray® interface. The calibration range was 0.500 (LLOQ) to 200 ng/mL in mouse plasma.
# Internal standard solution was added to the homogenate followed by neutralization with 20% ammonium hydroxide solution and addition of 500 μL 1% formic acid. The tissue samples were extracted by weak anion exchange solid phase extraction (SPE). Post extraction, the eluates were evaporated under nitrogen, followed by reconstitution before injection onto the LC-MS/MS system.
# Huh-7 cells = assay: Release of active metabolite in Huh-7 cells; type: in vitro ADME, human; details: Table 7
# Procedure: Huh-7 cells were plated in 1 mL culture medium (DMEM, containing glucose, L-glutamine and sodium pyruvate, 10% FBS, 100 IU/mL penicillin, 100 μg/mL streptomycin, 2 mM GlutaMAX, 1% MEM non-essential amino acids) at the concentration 0.8, 0.4 and 0.2 million cells per well on 6 well plates for 24, 48 and 72 hr treatment, respectively. Plated cells were incubated overnight at 37° C. in an incubator.
# The following morning test compound was diluted to 20 μM from a stock solution in DMSO in fresh culture medium pre-warmed to 37° C. and 1 mL of the solution/well was added to cells. A final medium volume per well was 2.0 mL, test compound concentration in well was 10 μM and final DMSO concentration was 0.1%.
# After 24, 48 or 72 hr, the medium was carefully removed and cell monolayers were washed twice with 2 mL ice-cold PBS per well. Following the last wash, all PBS was carefully removed and 1.0 mL of extraction solution (ice-cold 70% methanol) added. The plate was tightly covered with Parafilm, plastic plate cover and Parafilm again and an intracellular content was extracted at −20° C. for 24 hr.
# After 24 hr the extracts were transferred into polypropylene microfuge tubes and dry on a refrigerated centrivap concentrator. Dry residues were reconstituted in 250 μL of HPLC-grade water and centrifuged at 16,000×g for 10 min. Aliquots (100 μL each) of the supernatants were transferred into a 96 well plate and internal standard (4 ng/mL final concentration) was added as the internal standard (IS) for LC-MS/MS analysis.
# [5] = Hepatitis C virus, 72 h, Zluc (Huh-7-derived) cells, luciferase reporter, 72 hours, read-out: HCV Replicon EC50
# [6] = Hepatitis C virus, Huh-7, read-out: EC50 (replicon reproduction), genotype 1b HCV replicon-bearing human hepatoma cell line (Huh-7)
Compound,CES1 hydrolysis ([1]; 21 h),CatA hydrolysis (cathepsin A (CatA)) [%],EC50 (HCV genotype 1b replicon; [5]) [µM],CC50 [3] [µM],MsH AUC (fresh mouse hepatocyte) [pmol.hr/mill cells],MsH Cmax (fresh mouse hepatocyte) [pmol/mill cells],Huh-7 AUC0-72 (Huh-7 cells) [pmol*hr/10^6cells],EC50 (HCV genotype 1b replicon; [6]) [µM],Hydrolysis by CES1 [1],CES1 hydrolysis ([1]; 3 h) [% @],Liver:plasma ratio of drug metabolites [2],also measured
"CC(C)OC(=O)[C@@H](C)NP(=O)(OC[C@H]1O[C@@H](n2ccc(=O)[nH]c2=O)[C@](C)(Cl)[C@@H]1O)Oc1ccccc1 (single isomer, unassigned; diastereomer 2) [Compound 40i Diastereomer 2]",4.5% @,0,–,–,–,–,–,–,–,–,–,"EC50 (HCV genotype 1b replicon; Table 7, read-out: EC50): 7 µM; Liver TP [2]: 4400 pmol·h/g"
"CCOc1nc(N)nc2c1ncn2[C@@H]1O[C@H](COP(=O)(N[C@H](C)C(=O)OC(C)C)Oc2ccccc2)C[C@@]1(C)F (single isomer, unassigned) [502a Diastereomer 1]",–,–,1 to 10,< 50,–,–,–,–,–,–,–,–
"CC(C)OC(=O)[C@@H](C)NP(=O)(OC[C@H]1O[C@@H](n2ccc(=O)[nH]c2=O)[C@](C)(Cl)[C@@H]1O)Oc1ccccc1 (single isomer, unassigned; diastereomer 2) [40i Diastereomer 2]",–,–,–,–,1073,89,–,–,–,–,–,Ms Plasma nucleoside AUC [4]: 0.0036 M·s; Cmax ([4]; read-out: Ms Plasma nucleoside Cmax): 64 nM
"CC(C)OC(=O)[C@@H](C)N[P@@](=O)(OC[C@H]1O[C@@H](n2ccc(=O)[nH]c2=O)[C@](C)(F)[C@@H]1O)Oc1ccccc1 [Compound (804a) Ia (RP isomer), D-Alanine, N—((RP,2′R)-2′-deoxy-2′-fluoro-2′-methyl-P-phenyl-5′-uridylyl)-, 1-methylethyl ester]",3 h; 26%,0,–,–,–,–,720.4,> 50,processed,10,high liver:plasma ratio of drug metabolites,"EC50 (HCV genotype 1b replicon; Hepatitis C virus, Table 7, read-out: EC50): > 50 µM"
"CC(C)OC(=O)[C@@H](C)NP(=O)(OC[C@H]1O[C@@H](n2ccc(=O)[nH]c2=O)[C@](C)(Cl)[C@@H]1O)Oc1ccccc1 (single isomer, unassigned) [40i Diastereomer 1]",–,–,> 10,> 50,4052,198,–,–,–,–,–,–
"CC(C)OC(=O)[C@@H](C)NP(=O)(OC[C@H]1O[C@@H](n2ccc(=O)[nH]c2=O)[C@](C)(Cl)[C@@H]1O)Oc1ccccc1 (single isomer, unassigned) [Compound 40i Diastereomer 1]",3 h; 49%,0,–,–,–,–,436.9,> 50,processed,23,high liver:plasma ratio of drug metabolites,–
